Data from US20110251128A1, “THYMOSIN Beta4 PEPTIDES PROMOTE TISSUE REGENERATION” (The Board of Regents of the University of Texas System, priority 2010, published 2011).
Entries after “also recorded” stand apart in the source; their conditions may differ.

What was measured:
adult infarcted pigs = experiment: Ischemia reperfusion (acute myocardial infarction) in pigs with retroinfusion of peptides; type: in vivo, pig
Experimental: Pigs: German pigs were purchased from the animal research department of the Ludwig-Maximilians-University (Oberschleissheim, Germany). Animal care and all experimental procedures were performed in accordance to the German and NIH animal legislation guidelines and were approved by the Bavarian Animal Care and Use Committee (AZ 55.2-1-54-2531-26/09). All animal experiments were conducted at the Walter Brendel Centre of Experimental Medicine, University of Munich.
Ischemia reperfusion experiments: Pigs (n=5/experimental group) were anesthetized and instrumented as described previously (Hinkel et al., 2008). Briefly, a balloon was placed in the left anterior descending artery (LAD) distal to the bifurcation of the first diagonal branch and inflated for 60 min. Correct localization of the coronary occlusion and patency of the first diagonal branch were ensured by injection fluoroscopy. Regional application of TB4 peptides or saline solution was performed via selective pressure regulated retroinfusion for 10 min into the anterior interventricular vein (AIV) draining the LAD-perfused myocardium (Kupatt et al., 2005).
Global myocardial function: At day 0 before ischemia induction and after 24 h of reperfusion myocardial function was obtained via Millar pressure tip catheter. Therefore the Millar pressure tip catheter was placed in the left ventricle and left ventricular pressure was recorded for off-line analysis.
Regional myocardial function: 24 hours after induction of ischemia, sternotomy was performed and ultrasonic crystals were placed subendocardial into the area at risk, the infracted area as well as into the Cx perfusion area in a standardized manner. Subendocardial segment shortening (SES) was assessed under resting heart rate as well as at 120 and 150 beats/min atrial pacing (for 1 min/each).
Infarct size and local inflammation: For assessment of infarct size methylene blue was injected in the left ventricle for negative staining of the AAR and tetrazolium red was applied into the LAD for viability staining in the infracted area. Thereafter, left ventricle was cut into slices (5 mm thick), and subjected to digital photography. Planimetry of different slices was conducted via ImageJ for assessment of infarct size in % of AAR. Tissue samples from infarct, area at risk and non-ischemic control were harvested for leukocyte recruitment. Myeloperoxidase assays were performed as previously described (Kupatt et al., 2005).

Connexin43 = Connexin43 expression (Western blot) and localization (immunohistology) in infarcted hearts; type: in vivo, mouse
Source text: Animals and Surgical procedures. Mice: Myocardial infarctions were produced in seventy C57BL/6J male mice at 16 weeks of age (25-30 g) by ligation of the left anterior descending (LAD) coronary artery as described (Garner et al., 2003). All animal protocols were reviewed and approved by the University of Texas Southwestern Medical School Institutional Animal Care Advisory Committee and were in compliance with the rules governing animal use as published by the NIH. Mice were sedated in an isoflurane chamber (5%) for 60 seconds until self-designed coaxial mask could be safely applied. […] Effective doses of the peptides were calculated based on optimal in vitro cell migration effect and on biodistribution calculations of full length TB4 (Mora et al., 1997). […]
Western blot. […] The protein fraction was isolated from the interphase of the Trizol purification as recommended by the manufacturer; 10 μg of the total protein was loaded and analyzed by Western blot with protein-specific primary antibodies: VEGF, p-Marcks, p-Akt, and GAPDH (1:100) (Santa Cruz), Connexin43 (1:50) (Invitrogen), N-Cadherin (1:5000) (BD Biosciences) and pS368-Connexin43 (1:1000) (Cell Signaling Technology).
Immunohistochemistry. Adult mouse cardiac tissue was fixed in 4% paraformaldehyde and sections were analyzed by immunohistochemistry. […]

Thymosin β4 [TB4]
left ventricular end-diastolic pressure (adult infarcted pigs; after ischemia and 24 h reperfusion): 10.4+/−0.8 mmHg | regional myocardial function in the infarcted area (adult infarcted pigs; at rest and under increased heart rate (atrial pacing)): significantly improved | infarct size (adult infarcted pigs; in % of AAR, 60 min occlusion, retroinfusion at onset of reperfusion, n=5): 35+/−3% | post-ischemic inflammatory leukocyte influx (myeloperoxidase activity) (adult infarcted pigs; ischemic heart tissue after retroinfusion): reduced post-ischemic inflammatory leukocyte influx | Cx43 localization (Connexin43; border zone of cardiac infarction): stayed primarily at the intercalated discs; also recorded: mainly localized to the intercalated discs | Cx43 expression (Connexin43; infarcted cores, 21 days after infarction): significant increase in Cx43 expression; also recorded: significant increase in Cx43 level
